Patent US20050074879A1, “Antisense oligonucleotide modulation of STAT3 expression” (priority 2000, published 2005)
Oligonucleotides are written 5' to 3', each unit as a sugar letter and its base; * is a phosphorothioate linkage, no mark a phosphodiester; rarer units and linkages stand in square brackets, end groups in braces. Plain capitals give the bases only. e = 2'-O-(2-methoxyethyl) (MOE); [5mC] = 5-methylcytosine; d = 2'-deoxy (DNA)

Legend:
Format in all cases: cell-based
Mouse STAT3 mRNA = test: Inhibition of mouse STAT3 mRNA expression in BCL1 cells (electroporation; RNase protection/Northern blot); design: % mRNA INHIBITION: dose or concentration left out as unconfirmed; conditions: BCL1 cells electroporated with oligonucleotide, RNA collected 24 hours later; for % mRNA EXPRESSION: control 100%
Procedure: The B lymphoma cell line, BCL1 was obtained from ATCC (Rockville, Md.). BCL1 cells were cultured in RPMI 1640 medium.
BCL1 cells (5×10^6 cells in PBS) were transfected with oligonucleotides by electroporation, at 200V, […]. using a BTX Electro Cell Manipulator 600 (Genetronics, San Diego, Calif.). For an initial screen, BCL1 were electroporated with […] oligonucleotide and RNA collected 24 hours later. Controls without oligonucleotide were subjected to the same electroporation conditions.
Total cellular RNA was isolated using the RNEASY7 kit (Qiagen, Santa Clarita, Calif.). RNAse protection experiments were conducted using RIBOQUANT™ kits and template sets according to the manufacturer's instructions (Pharmingen, San Diego, Calif.). Northern blotting was performed as described in Chiang, M-Y. et al. (J. Biol. Chem., 1991, 266, 18162-18171), using a rat cDNA probe prepared by Xho I/Sal I restriction digest of psvsport-1 plasmid (ATCC, Rockville, Md.). mRNA levels were quantitated using a PhosphorImager (Molecular Dynamics, Sunnyvale, Calif.).

Human STAT3 mRNA [1] = test: Human STAT3 mRNA dose response in T-24 cells, real-time PCR with PPS 199 (Table 18); conditions: 16 hours, − decrease, + increase relative to untreated control
Text: The transitional cell bladder carcinoma cell line T-24 was obtained from the American Type Culture Collection (ATCC) (Manassas, Va.). T-24 cells were routinely cultured in complete McCoy's 5A basal media (Gibco/Life Technologies, Gaithersburg, Md.) supplemented with 10% fetal calf serum (Gibco/Life Technologies, Gaithersburg, Md.), penicillin 100 units per mL, and streptomycin 100 micrograms per mL (Gibco/Life Technologies, Gaithersburg, Md.). Cells were routinely passaged by trypsinization and dilution when they reached 90% confluence. Cells were seeded into 96-well plates (Falcon-Primaria #3872) at a density of 7000 cells/well for use in RT-PCR analysis.
Control oligonucleotides used were ISIS 129695 ([…], SEQ ID NO: 391), ISIS 129694 ([…] SEQ ID NO: 392), ISIS 129690 ([…] SEQ ID NO: 393), ISIS 129686 ([…] SEQ ID NO: 394), ISIS 116847 ([…], SEQ ID NO: 395) and ISIS 113529 ([…] SEQ ID NO: 396). These are universal scrambled control oligonucleotides.
(§1) T-24 cells were treated with 18.75, 37.5, 75, or 150 nM of oligonucleotide mixed with 3 ug/mL LIPOFECTIN per 100 nM oligonucleotide as described by other examples herein. Untreated cells served as controls. Following 16 hours of treatment, RNA was prepared from cells for subsequent real-time PCR analysis.
Human STAT3 mRNA expression levels were quantitated by real-time PCR using primer probe set PPS 199 and gene target quantities were normalized using Ribogreen as described in other examples herein. A “−” or “+” designation indicates a decrease or increase of STAT 3 mRNA expression, respectively, relative to untreated control cells.

Human STAT3 mRNA [2] = test: Inhibition of human STAT3 mRNA levels in A549 cells, 75 nM, real-time PCR (Table 13); conditions: 75 nM oligonucleotide with LIPOFECTIN, real-time PCR PPS 199, percent inhibition relative to untreated control cells, average of 2 experiments
Outline: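 A549 cells at 65–75% confluency were transfected in duplicate with 75 nM oligonucleotide plus […] Lipofectin for 4–7 h at 37° C and harvested 16–24 h later. STAT3 mRNA was quantified by real-time RT-PCR with primer-probe set PPS 199 and normalized to RiboGreen total RNA. Inhibition is relative to untreated controls.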

Human STAT3 mRNA [3] = test: Human STAT3 mRNA dose response in T-24 cells, real-time PCR with PPS 2033 (Table 19); conditions: 16 hours, − decrease, + increase relative to untreated control
Procedure: The dose-response was repeated in T-24 cells and gene target quantities were measured using a different primer-probe set, called PPS 2033 herein. PPS 2033 comprises probes and primers to human STAT3 were designed to hybridize to a human STAT3 sequence, using published sequence information (incorporated herein as SEQ ID NO: XXX). For PPS 2033 the PCR primers were: forward primer: GAGGCCCGCCCAACA (SEQ ID NO: 397) reverse primer: […] (SEQ ID NO: 398) and the PCR probe was: FAM-CTGCCTAGATCGGC-TAMRA (SEQ ID NO: 399) where FAM is the fluorescent reporter dye and TAMRA is the quencher dye. Gene target quantities obtained by real time RT-PCR are normalized by quantifying total RNA using RiboGreen™ (Molecular Probes, Inc. Eugene, Oreg.). Control oligonucleotides used were ISIS 129695 (SEQ ID NO: 391), ISIS 129694 (SEQ ID NO: 392), ISIS 129690 (SEQ ID NO: 393), ISIS 129686 (SEQ ID NO: 394), ISIS 116847 (SEQ ID NO: 395) and ISIS 113529 (SEQ ID NO: 396).
as §1
Human STAT3 mRNA expression levels were quantitated by real-time PCR using primer probe set PPS 2033 and gene target quantities were normalized using Ribogreen as described in other examples herein. A “−” or “+” designation indicates a decrease or increase of STAT 3 mRNA expression, respectively, relative to untreated control cells.

Substance | % mRNA INHIBITION (Mouse STAT3 mRNA) [%] | % mRNA EXPRESSION (Mouse STAT3 mRNA) [%] | Percent change of STAT3 expression using PPS 199 (Human STAT3 mRNA [1]; 18.75 nM oligonucleotide) [%] | Percent change of STAT3 expression using PPS 199 (Human STAT3 mRNA [1]; 37.5 nM oligonucleotide) [%] | Percent change of STAT3 expression using PPS 199 (Human STAT3 mRNA [1]; 75 nM oligonucleotide) [%] | Percent change of STAT3 expression using PPS 199 (Human STAT3 mRNA [1]; 150 nM oligonucleotide) [%] | % Inhib (inhibition of human STAT 3 mRNA levels) (Human STAT3 mRNA [2]) [%] | Percent change of STAT3 expression using PPS 2033 (Human STAT3 mRNA [3]; 18.75 nM oligonucleotide) [%] | Percent change of STAT3 expression using PPS 2033 (Human STAT3 mRNA [3]; 37.5 nM oligonucleotide) [%] | Percent change of STAT3 expression using PPS 2033 (Human STAT3 mRNA [3]; 75 nM oligonucleotide) [%] | Percent change of STAT3 expression using PPS 2033 (Human STAT3 mRNA [3]; 150 nM oligonucleotide) [%]
17137 (antisense eT*eT*e[5mC]*eA*eG*dG*dT*dA*dG*dC*dG*dT*dG*dT*dG*eT*e[5mC]*e[5mC]*eA*eG) [compound 17137] | 25 | 75 | – | – | – | – | – | – | – | – | –
17155 (antisense eT*eG*eA*eA*eA*dA*dA*dG*dG*dA*dG*dG*dG*dC*dA*eG*eG*e[5mC]*eG*eG) [compound 17155] | 22 | 78 | – | – | – | – | – | – | – | – | –
17138 (antisense eA*eT*eG*eT*eG*dA*dC*dT*dC*dT*dT*dT*dG*dC*dT*eG*eG*e[5mC]*eT*eG) [compound 17138] | 63 | 37 | – | – | – | – | – | – | – | – | –
17140 (antisense eG*e[5mC]*eT*e[5mC]*e[5mC]*dA*dA*dC*dA*dT*dC*dT*dG*dC*dT*eG*e[5mC]*eT*eT*e[5mC]) [compound 17140] | 60 | 40 | – | – | – | – | – | – | – | – | –
17153 (antisense eA*eT*e[5mC]*eA*e[5mC]*dC*dC*dA*dC*dA*dC*dT*dC*dA*dC*eT*e[5mC]*eA*eT*eT) [compound 17153] | 56 | 44 | – | – | – | – | – | – | – | – | –
17144 (antisense e[5mC]*eG*e[5mC]*eT*e[5mC]*dC*dT*dT*dG*dC*dT*dG*dA*dT*dG*eA*eA*eA*e[5mC]*e[5mC]) [compound 17144] | 45 | 55 | – | – | – | – | – | – | – | – | –
17149 (antisense eG*eG*eT*eT*eT*dC*dA*dG*dC*dT*dC*dC*dT*dC*dA*e[5mC]*eA*eT*eG*eG) [compound 17149] | 30 | 70 | – | – | – | – | – | – | – | – | –
17154 (antisense e[5mC]*e[5mC]*eT*eT*eT*dG*dC*dC*dT*dC*dC*dC*dT*dT*dC*eT*eG*e[5mC]*eT*e[5mC]) [compound 17154] | 20 | 80 | – | – | – | – | – | – | – | – | –
17136 (antisense eG*eT*eT*e[5mC]*e[5mC]*dA*dC*dT*dG*dA*dG*dC*dC*dA*dT*e[5mC]*e[5mC]*eT*eG*e[5mC]) [compound 17136] | 25 | 75 | – | – | – | – | – | – | – | – | –
337303 (antisense eA*eG*e[5mC]*eT*eG*dA*dT*dA*dA*dT*dT*d[5mC]*dA*dA*d[5mC]*eT*e[5mC]*eA*eG*eG) [compound 337303] | – | – | −44 | −61 | −69 | −72 | 85 | −47 | −59 | −69 | −71
337284 (antisense e[5mC]*eT*e[5mC]*e[5mC]*eT*dT*dG*dA*d[5mC]*dT*d[5mC]*dT*dT*dG*dA*eG*eG*eG*eT*eT) [compound 337284] | – | – | −49 | −64 | −69 | −72 | 91 | −49 | −62 | −66 | −68
17157 (antisense eA*eA*e[5mC]*e[5mC]*eT*dC*dC*dT*dG*dG*dG*dC*dT*dT*dA*eG*eT*e[5mC]*e[5mC]*eT) [compound 17157] | 47 | 53 | – | – | – | – | – | – | – | – | –
17145 (antisense eA*eA*e[5mC]*eT*eT*dG*dG*dT*dC*dT*dT*dC*dA*dG*dG*eT*eA*e[5mC]*eG*eG) [compound 17145] | 11 | 89 | – | – | – | – | – | – | – | – | –
337344 (antisense eA*eT*e[5mC]*e[5mC]*eA*dT*dG*dA*dT*d[5mC]*dT*dT*dA*dT*dA*eG*e[5mC]*e[5mC]*e[5mC]*eA) [compound 337344] | – | – | −27 | −47 | −63 | −77 | 90 | −17 | −37 | −60 | −76
337276 (antisense e[5mC]*eT*eG*eG*eA*dG*dA*dT*dT*d[5mC]*dT*d[5mC]*dT*dA*d[5mC]*e[5mC]*eA*e[5mC]*eT*eT) [compound 337276] | – | – | −40 | −61 | −76 | −81 | 91 | −34 | −58 | −75 | −81
337293 (antisense e[5mC]*eA*eG*e[5mC]*e[5mC]*dA*dG*d[5mC]*dT*d[5mC]*d[5mC]*dT*d[5mC]*dG*dT*e[5mC]*e[5mC]*eG*eT*eG) [compound 337293] | – | – | −26 | −49 | −66 | −79 | 92 | −26 | −49 | −67 | −79
